What all share (type): biochemical
In assay [1] the target is human Cat L (Homo sapiens (Human), UniProt P07711). Briefly: Cathepsin enzyme inhibition assay (fluorogenic peptide substrate), Cat L. The conditions noted are these: enzyme 1 nM, substrate Z-Val-Val-Arg-AMC 20 μM, pH 6.5. As to the method:
(§1) Enzyme activity is measured by observing the increase in fluorescence intensity caused by cleavage of a peptide substrate containing a fluorophore whose emission is quenched in the intact peptide.
(§2) Assay buffer: 100 mM potassium phosphate pH 6.5, EDTA-Na 5 mM, Triton X-100 0.001%, DTT 5 mM.
(§3) Enzymes (all at 1 nM): human and mouse Cathepsin S, Cat K, Cat B, Cat L. Substrate (20 μM): Z-Val-Val-Arg-AMC, except for Cat K which uses Z-Leu-Arg-AMC (both from Bachem).
(§4) Excitation 360 nm, Emission 465 nm.
(§5) Enzyme is added to the substance dilutions in 96-well microtitre plates and the reaction is started with substrate. […] IC50 are calculated by standard methods. Inhibition of human Cat S, mouse Cat S, human Cat K, mouse Cat K, human Cat B, mouse Cat B, human Cat L and mouse Cat L have been measured separately.

Assay [2] has as its target human Cat B (Homo sapiens (Human), UniProt P07858). Briefly: Cathepsin enzyme inhibition assay (fluorogenic peptide substrate), Cat B. The conditions noted are these: enzyme 1 nM, substrate Z-Val-Val-Arg-AMC 20 μM, pH 6.5. The method, then: as §1, §2, §3, §4, §5
In assay [3] the target is human Cathepsin S (Homo sapiens (Human), UniProt P25774). Nature of the assay: Cathepsin enzyme inhibition assay (fluorogenic peptide substrate), Cat S. The conditions noted are these: enzyme 1 nM, substrate Z-Val-Val-Arg-AMC 20 μM, pH 6.5. The method, then:
as §1, §2, §3, §4, §5

For assay [4], the target named is human Cat K (Homo sapiens (Human), UniProt P43235). Briefly: Cathepsin enzyme inhibition assay (fluorogenic peptide substrate), Cat K. The conditions noted are these: enzyme 1 nM, substrate Z-Leu-Arg-AMC 20 μM, pH 6.5. As to the method:
as §1, §2, §3, §4, §5

Sequence of human Cathepsin S (P25774 115-331): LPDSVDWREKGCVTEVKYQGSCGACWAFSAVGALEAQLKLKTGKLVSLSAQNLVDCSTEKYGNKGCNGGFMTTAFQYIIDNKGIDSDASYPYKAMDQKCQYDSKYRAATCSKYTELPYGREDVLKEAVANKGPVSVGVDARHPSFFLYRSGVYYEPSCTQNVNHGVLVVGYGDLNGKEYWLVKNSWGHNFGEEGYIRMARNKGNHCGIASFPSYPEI
Sequence of human Cat K (P43235 115-329): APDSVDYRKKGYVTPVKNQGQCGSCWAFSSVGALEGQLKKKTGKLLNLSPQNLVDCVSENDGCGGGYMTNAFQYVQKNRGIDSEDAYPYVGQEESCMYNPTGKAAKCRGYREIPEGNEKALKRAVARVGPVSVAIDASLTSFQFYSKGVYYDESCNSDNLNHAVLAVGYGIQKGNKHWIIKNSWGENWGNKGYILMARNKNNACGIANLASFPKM
Sequence of human Cat L (P07711 114-333): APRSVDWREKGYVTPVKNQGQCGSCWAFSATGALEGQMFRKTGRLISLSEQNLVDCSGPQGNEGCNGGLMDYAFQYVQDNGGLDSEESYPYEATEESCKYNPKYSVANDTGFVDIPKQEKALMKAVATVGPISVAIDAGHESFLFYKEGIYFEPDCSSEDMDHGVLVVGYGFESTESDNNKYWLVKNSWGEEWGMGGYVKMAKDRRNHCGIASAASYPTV

For orientation: IC50 means the midpoint of a concentration-inhibition curve. Read a high IC50 as a need for much substance. As to `CC(C)C[C@H](NC(=O)[C@@H]1C[C@@H](S(=O)(=O)c2ccccc2Cl)CN1C(=O)C1(c2ccc(Cl)cc2)CC1)C(=O)C(=O)NC1CC1` [Example 29, (2S,4R)-1-(1-(4-chlorophenyl)cyclopropanecarbonyl)-4-(2-chlorophenylsulfonyl)-N—((S)-1-(cyclopropylamino)-5-methyl-1,2-dioxohexan-3-yl)pyrrolidine-2-carboxamide], the IC50 was determined as 18.4 nM in assay [1], 178 nM in assay [2], 1.27 nM in assay [3] and 69 nM in assay [4].

Turning to `CC[C@H](NC(=O)[C@@H]1C[C@@H](S(=O)(=O)c2ccccc2Cl)CN1C(=O)C1(c2ccc(Cl)cc2)CC1)C(=O)C(=O)NCC(C)C` [Example 55, (2S,4R)-1-(1-(4-chlorophenyl)cyclopropanecarbonyl)-4-(2-chlorophenylsulfonyl)-N—((S)-1-(isobutylamino)-1,2-dioxopentan-3-yl)pyrrolidine-2-carboxamide], the IC50 in assay [1] came to 2.6 nM; in assay [2], 61.6 nM; in assay [3], 0.876 nM; in assay [4] it was 56.5 nM.

Regarding `CCC[C@H](NC(=O)[C@@H]1C[C@@H](S(=O)(=O)c2ccccc2Cl)CN1C(=O)C1(c2ccc(Cl)cc2)CC1)C(=O)C(=O)NCC(F)(F)F` [Example 40, (2S,4R)-1-(1-(4-chlorophenyl)cyclopropanecarbonyl)-4-(2-chlorophenylsulfonyl)-N—((S)-1,2-dioxo-1-(2,2,2-trifluoroethylamino)hexan-3-yl)pyrrolidine-2-carboxamide], the IC50 stood at 29.9 nM in assay [1], 366 nM in assay [2], 1.06 nM in assay [3] and 406 nM in assay [4].

On to `CC[C@H](NC(=O)[C@@H]1C[C@@H](S(=O)(=O)c2ccccc2Cl)CN1C(=O)C1(c2ccc(Cl)cc2)CC1)C(=O)C(=O)NCCc1cccc2ccccc12` [Example 50, (2S,4R)-1-(1-(4-chlorophenyl)cyclopropanecarbonyl)-4-(2-chlorophenylsulfonyl)-N—((S)-1-(2-(naphthalen-1-yl)ethylamino)-1,2-dioxopentan-3-yl)pyrrolidine-2-carboxamide], for which the IC50 worked out at 8.6 nM in assay [1], 68.8 nM in assay [2], 2.76 nM in assay [3] and 119 nM in assay [4].

On to `CCC[C@H](NC(=O)[C@@H]1C[C@@H](S(=O)(=O)c2ccccc2Cl)CN1C(=O)C1(c2ncc(Cl)cc2F)CC1)C(=O)C(=O)NC1CC1` [Example 24, (2S,4R)-1-(1-(5-chloro-3-fluoropyridin-2-yl)cyclopropanecarbonyl)-4-(2-chlorophenylsulfonyl)-N—((S)-1-(cyclopropylamino)-1,2-dioxohexan-3-yl)pyrrolidine-2-carboxamide], for which the IC50 was 10.8 nM in assay [1], 190 nM in assay [2], 0.55 nM in assay [3] and 71.7 nM in assay [4].

On to `CC[C@H](NC(=O)[C@@H]1C[C@@H](S(=O)(=O)c2ccc(Cl)cc2Cl)CN1C(=O)C1(c2ccc(Cl)cc2)CC1)C(=O)C(=O)NC1CC1` [Example 38, (2S,4R)-1-(1-(4-chlorophenyl)cyclopropanecarbonyl)-N—((S)-1-(cyclopropylamino)-1,2-dioxopentan-3-yl)-4-(2,4-dichlorophenylsulfonyl)pyrrolidine-2-carboxamide], for which the IC50 in assay [1] stood at 10.6 nM; in assay [2] it was 154 nM; in assay [3], 0.34 nM; in assay [4] it was 53.3 nM.

For the compound `CC[C@H](NC(=O)[C@@H]1C[C@@H](S(=O)(=O)c2ccccc2Cl)CN1C(=O)C1(c2ccc(Cl)cc2F)CC1)C(=O)C(=O)NC1CC1` [Example 13, (2S,4R)-1-(1-(4-chloro-2-fluorophenyl)cyclopropanecarbonyl)-4-(2-chlorophenylsulfonyl)-N—((S)-1-(cyclopropylamino)-1,2-dioxopentan-3-yl)pyrrolidine-2-carboxamide], the IC50 in assay [1] turned out to be 11.3 nM; in assay [2], 142 nM; in assay [3] it was 0.704 nM; in assay [4], 67.9 nM.

In the case of `CC[C@H](NC(=O)[C@@H]1C[C@@H](S(=O)(=O)c2ccccc2Cl)CN1C(=O)C1(c2ccc(Br)cc2F)CC1)C(=O)C(=O)NC1CC1` [Example 14, (2S,4R)-1-(1-(4-bromo-2-fluorophenyl)cyclopropanecarbonyl)-4-(2-chlorophenylsulfonyl)-N—((S)-1-(cyclopropylamino)-1,2-dioxopentan-3-yl)pyrrolidine-2-carboxamide], the IC50 in assay [1] came out at 10.4 nM; in assay [2] it was 150 nM; in assay [3], 0.668 nM; in assay [4], 37.3 nM.

As to `CC[C@H](NC(=O)[C@@H]1C[C@@H](S(=O)(=O)c2ccc(F)cc2Cl)CN1C(=O)C1(c2ccc(Cl)cc2)CC1)C(=O)C(=O)NC1CC1` [Example 39, (2S,4R)-4-(2-chloro-4-fluorophenylsulfonyl)-1-(1-(4-chlorophenyl)cyclopropanecarbonyl)-N—((S)-1-(cyclopropylamino)-1,2-dioxopentan-3-yl)pyrrolidine-2-carboxamide], the IC50 in assay [1] came out at 11.4 nM; in assay [2], 140 nM; in assay [3], 0.558 nM; in assay [4] it was 63.6 nM.

For the compound `CCCCNC(=O)C(=O)[C@H](CC)NC(=O)[C@@H]1C[C@@H](S(=O)(=O)c2ccccc2Cl)CN1C(=O)C1(c2ccc(Cl)cc2)CC1` [Example 31, (2S,4R)—N—((S)-1-(butylamino)-1,2-dioxopentan-3-yl)-1-(1-(4-chlorophenyl)cyclopropanecarbonyl)-4-(2-chlorophenylsulfonyl)pyrrolidine-2-carboxamide], the IC50 came out at 11.2 nM in assay [1], 47.8 nM in assay [2] and 35.6 nM in assay [4].

Turning to `CC(C)[C@H](NC(=O)[C@@H]1C[C@@H](S(=O)(=O)c2ccccc2Cl)CN1C(=O)C1(c2ccc(Cl)cc2)CC1)C(=O)C(=O)NC1CC1` [Example 28, (2S,4R)-1-(1-(4-chlorophenyl)cyclopropanecarbonyl)-4-(2-chlorophenylsulfonyl)-N—((S)-1-(cyclopropylamino)-4-methyl-1,2-dioxopentan-3-yl)pyrrolidine-2-carboxamide], the IC50 in assay [1] turned out to be 5.2 nM; in assay [2], 97.3 nM; in assay [3], 0.328 nM.

As for `CC[C@H](NC(=O)[C@@H]1C[C@@H](S(=O)(=O)c2ccccc2Cl)CN1C(=O)C1(c2ccc(I)cc2)CC1)C(=O)C(=O)NC1CC1` [Example 17, (2S,4R)-4-(2-chlorophenylsulfonyl)-N—((S)-1-(cyclopropylamino)-1,2-dioxopentan-3-yl)-1-(1-(4-iodophenyl)cyclopropanecarbonyl)pyrrolidine-2-carboxamide], the results for the IC50 in assay [1], in assay [3] and in assay [4] were 10.1 nM, 0.652 nM and 30.1 nM, respectively.

For `CCC[C@H](NC(=O)[C@@H]1C[C@@H](S(=O)(=O)c2ccc(Cl)cc2Cl)CN1C(=O)C1(c2ccc(Cl)cc2)CC1)C(=O)C(=O)NC1CC1` [Example 42, (2S,4R)-1-(1-(4-chlorophenyl)cyclopropanecarbonyl)-N—((S)-1-(cyclopropylamino)-1,2-dioxohexan-3-yl)-4-(2,4-dichlorophenylsulfonyl)pyrrolidine-2-carboxamide], the figures for the IC50 in assay [2], in assay [3] and in assay [4] were 115 nM, 0.634 nM and 28.7 nM, respectively.

`CCNC(=O)C(=O)[C@H](CC)NC(=O)[C@@H]1C[C@@H](S(=O)(=O)c2ccccc2Cl)CN1C(=O)C1(c2ccc(Cl)cc2)CC1` [Example 43, (2S,4R)-1-(1-(4-chlorophenyl)cyclopropanecarbonyl)-4-(2-chlorophenylsulfonyl)-N—((S)-1-(ethylamino)-1,2-dioxopentan-3-yl)pyrrolidine-2-carboxamide]: the concentration for half-maximal inhibition (IC50) in assay [1] came to 13.6 nM; in assay [2] it was 112 nM; in assay [3], 0.508 nM.

In the case of `CC(C)[C@H](NC(=O)[C@@H]1C[C@@H](S(=O)(=O)c2ccccc2Cl)CN1C(=O)C1(c2ncc(Cl)cc2F)CC1)C(=O)C(=O)NC1CC1` [Example 58, (2S,4R)-1-(1-(5-chloro-3-fluoropyridin-2-yl)cyclopropanecarbonyl)-4-(2-chlorophenylsulfonyl)-N—((S)-1-(cyclopropylamino)-4-methyl-1,2-dioxopentan-3-yl)pyrrolidine-2-carboxamide], the IC50 was 0.9 nM in assay [1], 323 nM in assay [2] and 49.1 nM in assay [4].

In the case of `CC[C@H](NC(=O)[C@@H]1C[C@@H](S(=O)(=O)c2ccc(Cl)cc2C)CN1C(=O)OC(C)(C)C)C(=O)C(=O)NC1CC1` [Example 2, (2S,4R)-tert-butyl 4-(4-chloro-2-methylphenylsulfonyl)-2-((S)-1-(cyclopropylamino)-1,2-dioxopentan-3-ylcarbamoyl)pyrrolidine-1-carboxylate], the IC50 in assay [1] worked out at 2590 nM; in assay [2] it was 22600 nM; in assay [4] it was 9430 nM.

As to `CC[C@H](NC(=O)[C@@H]1C[C@@H](S(=O)(=O)c2ccccc2C(F)(F)F)CN1c1ccccc1[N+](=O)[O-])C(=O)c1nc2ccccc2o1` [Example 5, (2S,4R)-1-(2-Nitro-phenyl)-4-(2-trifluoromethyl-benzenesulfonyl)-pyrrolidine-2-carboxylic acid [(S)-1-(benzooxazole-2-carbonyl)-propyl]-amide], the IC50 in assay [2] stood at 106000 nM; in assay [3], 1.83 nM.

The values are drawn from patent publication US8729061B2, “Pyrrolidine derivatives” (Hoffmann-La Roche Inc., priority 2011, dated 2014).
